Holding throughout (assay type): cell-based
Test [1] addresses T1, IRAK4 (Homo sapiens, UniProt Q9NWZ3).
T1 construct: endogenous in cells; host or cells: Karpas299
T1 sequence (Q9NWZ3 1-460): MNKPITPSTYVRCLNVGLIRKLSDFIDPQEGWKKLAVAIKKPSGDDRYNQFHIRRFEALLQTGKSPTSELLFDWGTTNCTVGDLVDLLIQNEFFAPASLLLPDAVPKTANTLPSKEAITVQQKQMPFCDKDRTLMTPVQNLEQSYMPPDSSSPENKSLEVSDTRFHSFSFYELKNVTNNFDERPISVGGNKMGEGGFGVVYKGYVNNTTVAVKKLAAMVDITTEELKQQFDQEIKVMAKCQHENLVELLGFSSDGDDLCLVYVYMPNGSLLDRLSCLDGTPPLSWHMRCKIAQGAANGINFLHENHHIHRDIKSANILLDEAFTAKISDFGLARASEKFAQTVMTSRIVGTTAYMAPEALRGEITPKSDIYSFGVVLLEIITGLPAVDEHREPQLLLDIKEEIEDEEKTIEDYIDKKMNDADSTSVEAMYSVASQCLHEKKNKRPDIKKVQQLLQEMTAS
In words: IRAK4 Degradation Assay (Karpas299, HTRF/TR-FRET). As to conditions: Karpas-299 cells; for Dmax: maximum percentage of degradation. An outline of the steps: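 Compound potency as DC50 (IC50) came from four-parameter fits of percent IRAK4 degradation. IRAK4 was measured by HTRF (665/620 nm) in lysates of Karpas299 cells seeded at 0.2 million per well. Cells had been treated with compound dilutions for 5 or 24 h.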

Test [2] deals with T1, IRAK4. In words: IRAK4 Degradation Assay with Human Serum (Karpas299, HTRF/TR-FRET). As to conditions: Karpas-299 in human serum, 24 hrs treatment; for DC50: read-out: IRAK4 degradtion with human serum assay DC50; for Dmax: read-out: IRAK4 degradtion with human serum assay Dmax (%). An outline of the steps: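 Remaining IRAK4 measured by TR-FRET immunoassay on lysates of Karpas299 cells exposed 24 h to compound dilution series in human serum AB. DC50 derived from a Hill-slope fit of % degradation versus concentration.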
On the technique in general: In TR-FRET formats the signal depends on donor and acceptor labels being close together.

Test [3] concerns TNF-α production in THP-1 cells. In words: TNF-α Production Assay in THP-1 Cells (LPS stimulated). As to conditions: Homo sapiens, THP-1, 24 h; for Emax: maximum inhibition, read-out: TNF-α (THP-1) 24 h IMax. As to the method:
THP-1 cells maintained in RPMI 1640 medium (Thermo Scientific) supplemented with 10% FBS (Thermo Scientific), 100 units/mL penicillin and 0.1 mg/mL streptomycin (Thermo Scientific) were seeded into 96-well plates at the density of 0.2 million cells per well and then treated with compounds for 24 h. Lipopolysaccharide was subsequently added at the final concentration of 1 μg/mL for 24 h. Culture supernatant was collected for measurement of TNF-α concentration by a TR-FRET-based method (Degorce, François, et al. Current chemical genomics. 2009, 3: 22) as described by the manufacturer manual (Cisbio). FRET signals were measured using a PHERAstar FSX reader (BMG Labtech).

The mark [4] stands for this setting: 24 h treatment, read-out: IRAK4 in Karpas-299 (24 h) Dmax (%).
Where [5] appears, read: 24 h treatment, read-out: IRAK4 in Karpas-299 (24 h) DC50.
[6] abbreviates: 5 h treatment, read-out: IRAK4 in Karpas-299 (5 h) Dmax (%).
[7] abbreviates: 5 h treatment, read-out: IRAK4 in Karpas-299 (5 h) DC50.

Structures are written as SMILES.

For the compound `C[C@@H]1CN(C(=O)C2CN(c3cc(F)c([C@H]4CCC(=O)NC4=O)c(F)c3)C2)CCN1[C@H]1CC[C@H](n2cc3cc(NC(=O)c4ccc5cc(C#N)cnn45)c(C(C)(C)O)cc3n2)CC1` [Example 298, 3-cyano-N-(2-((1R,4r)-4-((R)-4-(1-(4-((R)-2,6-dioxopiperidin-3-yl)-3,5-difluorophenyl)azetidine-3-carbonyl)-2-methylpiperazin-1-yl)cyclohexyl)-6-(2-hydroxypropan-2-yl)-2H-indazol-5-yl)pyrrolo[1,2-b]pyridazine-7-carboxamide], the Dmax – broadly, the greatest extent of degradation seen – in test [1] (setting [4]) was determined as 99%. Besides, the DC50 (usually the concentration giving 50% degradation) in test [1] (setting [5]) is 0.3 nM. Also, in test [2], the DC50 worked out at 9.8 nM and the Dmax came to 103%. Further, in test [3], the IC50 (usually the concentration that inhibits the measured activity by half) came out at 13 nM and the Emax came to 93%.
With `C[C@@H]1CN(C2CCN(c3cc(F)c([C@H]4CCC(=O)NC4=O)c(F)c3)CC2)CCN1[C@H]1CC[C@H](n2cc3cc(NC(=O)c4ccc5cc(C#N)cnn45)c(C(C)(C)O)cc3n2)CC1` [Example 301, 3-cyano-N-(2-((1R,4r)-4-((R)-4-(1-(4-((R)-2,6-dioxopiperidin-3-yl)-3,5-difluorophenyl)piperidin-4-yl)-2-methylpiperazin-1-yl)cyclohexyl)-6-(2-hydroxypropan-2-yl)-2H-indazol-5-yl)pyrrolo[1,2-b]pyridazine-7-carboxamide], the Dmax in test [1] (setting [4]) worked out at 100%. The DC50 in test [1] (setting [5]) is 0.7 nM. For the same compound, in test [2], the DC50 amounted to 3.2 nM and the Dmax amounted to 102%. For the same compound, in test [3], the IC50 worked out at 42 nM and the Emax worked out at 96%.
On to `C[C@@H]1CN(C2CN(c3cc(F)c([C@H]4CCC(=O)NC4=O)c(F)c3)C2)CCN1[C@H]1CC[C@H](n2cc3cc(NC(=O)c4ccc5cc(C#N)cnn45)c(C(C)(C)O)cc3n2)CC1` [Example 302, 3-cyano-N-(2-((1R,4r)-4-((R)-4-(1-(4-((R)-2,6-dioxopiperidin-3-yl)-3,5-difluorophenyl)azetidin-3-yl)-2-methylpiperazin-1-yl)cyclohexyl)-6-(2-hydroxypropan-2-yl)-2H-indazol-5-yl)pyrrolo[1,2-b]pyridazine-7-carboxamide], for which the Dmax in test [1] (setting [4]) came out at 98%. In addition, the 50% degradation concentration (DC50) in test [1] (setting [5]) came out at 0.8 nM. Moreover, in test [2], the DC50 came out at 8.8 nM and the Dmax was 96%. In test [3], the IC50 is 38 nM and the Emax was determined as 84%.
In the case of `C[C@H]1CN(C(=O)C2CN(c3cc(F)c([C@H]4CCC(=O)NC4=O)c(F)c3)C2)CCN1[C@H]1CC[C@H](n2cc3cc(NC(=O)c4ccc5cc(C#N)cnn45)c(C(C)(C)O)cc3n2)CC1` [Example 304, 3-cyano-N-(2-((1S,4r)-4-((S)-4-(1-(4-((R)-2,6-dioxopiperidin-3-yl)-3,5-difluorophenyl)azetidine-3-carbonyl)-2-methylpiperazin-1-yl)cyclohexyl)-6-(2-hydroxypropan-2-yl)-2H-indazol-5-yl)pyrrolo[1,2-b]pyridazine-7-carboxamide], the Dmax in test [1] (setting [4]) is 96%. Moreover, the half-maximal degradation concentration (DC50) in test [1] (setting [5]) worked out at 0.5 nM. In addition, in test [2], the DC50 stood at 65 nM and the Dmax came to 97%. For the same compound, in test [3], the midpoint of inhibition, the IC50, lay at 31 nM and the Emax turned out to be 88%.
With `C[C@@H]1CN([C@H]2CC[C@H](n3cc4cc(NC(=O)c5ccc6cc(C#N)cnn56)c(C(C)(C)O)cc4n3)CC2)CCN1C(=O)C1CN(c2cc(F)c([C@H]3CCC(=O)NC3=O)c(F)c2)C1` [Example 309, 3-cyano-N-(2-((1R,4r)-4-((R)-4-(1-(4-((R)-2,6-dioxopiperidin-3-yl)-3,5-difluorophenyl)azetidine-3-carbonyl)-3-methylpiperazin-1-yl)cyclohexyl)-6-(2-hydroxypropan-2-yl)-2H-indazol-5-yl)pyrrolo[1,2-b]pyridazine-7-carboxamide], the Dmax in test [1] (setting [4]) was determined as 97%; in test [2] it was 100%. Moreover, the results for the DC50 in test [1] (setting [5]) and in test [2] were 0.4 nM and 14 nM, respectively. Also, the half-inhibitory concentration (IC50) in test [3] came to 31 nM. In test [3], the Emax turned out to be 90%.
Regarding `C[C@H]1CN([C@H]2CC[C@H](n3cc4cc(NC(=O)c5ccc6cc(C#N)cnn56)c(C(C)(C)O)cc4n3)CC2)CCN1C(=O)C1CN(c2cc(F)c([C@H]3CCC(=O)NC3=O)c(F)c2)C1` [Example 311, 3-cyano-N-(2-((1S,4r)-4-((S)-4-(1-(4-((R)-2,6-dioxopiperidin-3-yl)-3,5-difluorophenyl)azetidine-3-carbonyl)-3-methylpiperazin-1-yl)cyclohexyl)-6-(2-hydroxypropan-2-yl)-2H-indazol-5-yl)pyrrolo[1,2-b]pyridazine-7-carboxamide], the Dmax in test [1] (setting [4]) is 98%. Also, the DC50 in test [1] (setting [5]) was 0.8 nM. Moreover, in test [2], the DC50 was found to be 15 nM and the Dmax was found to be 99%. Also, in test [3], the IC50 came out at 29 nM and the Emax is 91%.
In the case of `COC[C@H]1CN([C@H]2CC[C@H](n3cc4cc(NC(=O)c5ccc6cc(C#N)cnn56)c(C(C)(C)O)cc4n3)CC2)CCN1C(=O)C1CN(c2cc(F)c(N3CCC(=O)NC3=O)c(F)c2)C1` [Example 315, 3-cyano-N-(2-((1R,4r)-4-((R)-4-(1-(4-(2,4-dioxotetrahydropyrimidin-1(2H)-yl)-3,5-difluorophenyl)azetidine-3-carbonyl)-3-(methoxymethyl)piperazin-1-yl)cyclohexyl)-6-(2-hydroxypropan-2-yl)-2H-indazol-5-yl)pyrrolo[1,2-b]pyridazine-7-carboxamide], the Dmax in test [1] (setting [6]) came out at 97%; in test [1] (setting [4]), 95%; in test [2], 99%. Besides, the results for the DC50 in test [1] (setting [7]), in test [1] (setting [5]) and in test [2] were 0.9 nM, 0.6 nM and 18 nM, respectively. Besides, in test [3], 22 nM corresponded to half-maximal inhibition (IC50). The Emax in test [3] was determined as 93%.
With `COC[C@@H]1CN([C@H]2CC[C@H](n3cc4cc(NC(=O)c5ccc6cc(C#N)cnn56)c(C(C)(C)O)cc4n3)CC2)CCN1C1CCN(c2cc(F)c([C@H]3CCC(=O)NC3=O)c(F)c2)CC1` [Example 319], the Dmax in test [1] (setting [6]) was 95%; in test [1] (setting [4]), 98%; in test [2], 98%. Moreover, the DC50 in test [1] (setting [7]) was determined as 1.2 nM; in test [1] (setting [5]) it was 2 nM; in test [2], 6.7 nM. Besides, in test [3], the IC50 amounted to 39 nM. In addition, in test [3], the Emax amounted to 90%.
With `CC(C)(O)c1cc2nn([C@H]3C[C@H](N4CCN(C5CCN(c6cc(F)c([C@H]7CCC(=O)NC7=O)c(F)c6)CC5)CC4)C3)cc2cc1NC(=O)c1ccc2cc(C#N)cnn12` [Example 330, 3-cyano-N-(2-((1R,3r)-3-(4-(1-(4-((R)-2,6-dioxopiperidin-3-yl)-3,5-difluorophenyl)piperidin-4-yl)piperazin-1-yl)cyclobutyl)-6-(2-hydroxypropan-2-yl)-2H-indazol-5-yl)pyrrolo[1,2-b]pyridazine-7-carboxamide], the Dmax in test [1] (setting [4]) is 96%; in test [2], 98%. The DC50 stood at 0.6 nM in test [1] (setting [5]) and 10 nM in test [2]. For the same compound, in test [3], half-maximal inhibition (IC50) required 19 nM. For the same compound, the Emax in test [3] was 89%.
`CC(C)(O)c1cc2nn(C3CCN([C@H]4CCN(CCc5cc(F)c([C@H]6CCC(=O)NC6=O)c(F)c5)CC4(F)F)CC3)cc2cc1NC(=O)c1ccc2cc(C#N)cnn12` [Example 339, 3-cyano-N-(2-((S)-1′-(4-((R)-2,6-dioxopiperidin-3-yl)-3,5-difluorophenethyl)-3′,3′-difluoro-[1,4′-bipiperidin]-4-yl)-6-(2-hydroxypropan-2-yl)-2H-indazol-5-yl)pyrrolo[1,2-b]pyridazine-7-carboxamide]: the Dmax in test [1] (setting [4]) is 95%. For the same compound, the DC50 in test [1] (setting [5]) turned out to be 2.5 nM. In test [2], the DC50 was 20 nM and the Dmax was found to be 99%. In test [3], the IC50 turned out to be 122 nM and the Emax is 67%.

(Values after patent US20250195513A1, “DEGRADATION OF IRAK4 BY CONJUGATION OF IRAK4 INHIBITORS WITH E3 LIGASE LIGAND AND METHODS OF USE” (BeiGene, Ltd., priority 2022, published 2025).)
